# Reference: paper PMC12588666 (Therapeutic Drug Monitoring, 2025)
# Experiments:
# S. aureus [1] = test: Susceptibility of intraoperative culture isolate, S. aureus (case 1); assay type: cell-based, Staphylococcus aureus; conditions: case 1 intraoperative culture
# Description: (§1) Case 1: A patient (102.5 kg, creatinine clearance of 71 mL/min based on a 6-hour urine collection) developed a polymicrobial implant-associated spinal infection (IASI) after Th9-L3 spondylodesis and laminectomy at Th12. […] Surgical debridement was performed before dalbavancin therapy.
# (§2) Intravenous vancomycin and ceftriaxone were initiated to treat S. aureus, P. mirabilis, and E. faecium. S. aureus was susceptible to both agents, P. mirabilis to ceftriaxone, and E. faecium to vancomycin. After 1 week, ceftriaxone was switched to oral ciprofloxacin.
# E. faecium [2] = test: Susceptibility of intraoperative culture isolate, E. faecium (case 1); assay type: cell-based, Enterococcus faecium; conditions: case 1 intraoperative culture
# Description: as §1, §2
# P. mirabilis = test: Susceptibility of intraoperative culture isolate, P. mirabilis (case 1); assay type: cell-based, Proteus mirabilis; conditions: case 1 intraoperative culture
# Description: as §1, §2
# [3] = test system: implant-associated spinal infection (IASI); test: Clinical outcome and tolerability in patients with implant-associated spinal infection
# Description: The total duration of the antimicrobial treatment was 12 weeks. Creatinine levels remained stable.
# Symptoms resolved within 2.5 hours after 1-mg oral clemastine (antihistamine) and was discharged.
# [4] = long half-life; cited from earlier work
# E. faecium [5] = conditions: Clinical and Laboratory Standards Institute; cited from earlier work
# Source text: (§3) The Clinical and Laboratory Standards Institute has defined a tentative susceptibility breakpoint o ...
# S. aureus [6] = conditions: in vivo; cited from earlier work
# Source text: as §3
# [7] = Dalbavancin plasma concentrations by LC-MS/MS (TDM, case 1); assay type: in vivo, human
# Source text: Background: Implant-associated spinal infections (IASI) pose challenges for outpatient management due to the need for frequent intravenous antibiotic administration. […] One patient received therapeutic drug monitoring (TDM)-guided dosing, while the other was managed with fixed-interval dosing. […] Both patients successfully completed therapy without recurrence of the infection during follow-up. […] Further research is required to establish standardized therapeutic drug monitoring protocols for the management of IASI.
# The second 1500 mg dose followed on day 8, with TDM on days 22 and 28.
SMILES,susceptibility of S. aureus (S. aureus [1]),susceptibility of E. faecium (E. faecium [2]),susceptibility of P. mirabilis (P. mirabilis),"infection recurrence at follow-up ([3]; both patients (case 1 TDM-guided three doses, case 2 fixed-interval four doses of 1500 mg))","blood, renal, and liver tests ([3]; case 2)","adverse reaction after the final dose ([3]; case 2, 85 kg, 4 off-label 1500-mg doses every 2 weeks without TDM)","severity of reaction ([3]; case 2, possibly due to the infusion)",half-life [4] [h],tentative susceptibility breakpoint (E. faecium [5]) [mg/L],trough concentration corresponding to the ƒAUC24/MIC target (S. aureus [6]) [µg/mL],"trough concentration before the third dalbavancin infusion ([7]; case 1, 102.5 kg, CrCl 71 mL/min, after 1500 mg doses on day 1 and day 8, single patient) [mg/L]","peak plasma concentration after the third dalbavancin infusion ([7]; case 1, third 1500-mg dose on day 44, single patient) [mg/L]"
CN[C@H](CC(C)C)C(=O)N[C@H]1C(=O)N[C@@H](CC(N)=O)C(=O)N[C@H]2C(=O)N[C@H]3C(=O)N[C@H](C(=O)N[C@H](C(=O)O)c4cc(O)cc(O)c4-c4cc3ccc4O)[C@H](O)c3ccc(c(Cl)c3)Oc3cc2cc(c3O[C@@H]2O[C@H](CO)[C@@H](O)[C@H](O)[C@H]2O[C@H]2C[C@](C)(N)[C@H](O)[C@H](C)O2)Oc2ccc(cc2Cl)[C@H]1O [vancomycin],susceptible,susceptible,,,,,,,,,,
CO/N=C(\C(=O)N[C@@H]1C(=O)N2C(C(=O)O)=C(CSc3nc(=O)c(=O)[nH]n3C)CS[C@H]12)c1csc(N)n1 [ceftriaxone],susceptible,,susceptible,,,,,,,,,
CN[C@H]1C(=O)N[C@@H]2Cc3ccc(cc3)Oc3cc4cc(c3O[C@@H]3O[C@H](C(=O)O)[C@@H](O)[C@H](O)[C@H]3NC(=O)CCCCCCCCC(C)C)Oc3ccc(cc3Cl)[C@@H](O)[C@@H]3NC(=O)[C@H](NC(=O)[C@@H]4NC(=O)[C@@H](NC2=O)c2cc(cc(O)c2Cl)Oc2cc1ccc2O)c1ccc(O)c(c1)-c1c(O[C@H]2O[C@H](CO)[C@@H](O)[C@H](O)[C@@H]2O)cc(O)cc1[C@@H](C(=O)NCCCN(C)C)NC3=O [dalbavancin],,,,without infection recurrence up to 8 months after therapy,remained normal,"nausea, vomited once, and had a painful, itchy, erythematous, and swollen face",moderate reaction,147 to 258,0.25,≥ 8,10.3,301.8
